The text below walks through data of ChEMBL document CHEMBL5465560, “Selectivity Literature for EUbOPEN Chemogenomic Library” (2024).

The target of assay [1] is T1, Non-receptor tyrosine-protein kinase TNK1 (Homo sapiens) (UniProt Q13470).
T1 sequence (whole entry): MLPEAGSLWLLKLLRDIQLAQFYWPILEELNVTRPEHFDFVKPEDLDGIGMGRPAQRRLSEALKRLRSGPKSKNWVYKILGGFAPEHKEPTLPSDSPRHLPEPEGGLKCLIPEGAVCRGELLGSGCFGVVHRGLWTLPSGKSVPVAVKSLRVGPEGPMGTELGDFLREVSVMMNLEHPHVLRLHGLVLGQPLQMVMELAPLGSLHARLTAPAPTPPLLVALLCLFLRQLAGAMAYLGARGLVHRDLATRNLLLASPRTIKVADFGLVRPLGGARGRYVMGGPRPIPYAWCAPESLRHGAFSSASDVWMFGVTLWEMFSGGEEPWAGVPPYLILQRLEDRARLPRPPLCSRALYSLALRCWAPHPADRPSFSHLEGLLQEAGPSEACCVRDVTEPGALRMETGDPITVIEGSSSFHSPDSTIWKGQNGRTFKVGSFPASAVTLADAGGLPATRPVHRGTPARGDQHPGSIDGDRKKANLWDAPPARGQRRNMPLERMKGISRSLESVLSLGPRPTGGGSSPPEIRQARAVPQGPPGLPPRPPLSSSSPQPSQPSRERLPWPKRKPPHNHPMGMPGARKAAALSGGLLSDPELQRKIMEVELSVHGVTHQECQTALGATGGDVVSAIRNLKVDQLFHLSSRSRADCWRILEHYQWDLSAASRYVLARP
As to the kind of experiment: Selectivity interaction (Ambit KINOMEscan and KiNATiv profiling in Jurkat cells) EUB0000090b TNK1. In kind it is cell-based. The conditions noted are these: at 1 µM.

Assay [2] addresses Proto-oncogene tyrosine-protein kinase Src (Homo sapiens, UniProt P12931). Nature of the assay: Selectivity interaction (SelectScreen profiling (Invitrogen)) EUB0000607a SRC. The conditions noted are these: at 2 µM.
In assay [3] the target is Serine/threonine-protein kinase VRK2 (Homo sapiens) (UniProt Q86Y07). The conditions noted are these: at 10 µM.
Sequence of Serine/threonine-protein kinase VRK2 (Homo sapiens) (Q86Y07 whole entry): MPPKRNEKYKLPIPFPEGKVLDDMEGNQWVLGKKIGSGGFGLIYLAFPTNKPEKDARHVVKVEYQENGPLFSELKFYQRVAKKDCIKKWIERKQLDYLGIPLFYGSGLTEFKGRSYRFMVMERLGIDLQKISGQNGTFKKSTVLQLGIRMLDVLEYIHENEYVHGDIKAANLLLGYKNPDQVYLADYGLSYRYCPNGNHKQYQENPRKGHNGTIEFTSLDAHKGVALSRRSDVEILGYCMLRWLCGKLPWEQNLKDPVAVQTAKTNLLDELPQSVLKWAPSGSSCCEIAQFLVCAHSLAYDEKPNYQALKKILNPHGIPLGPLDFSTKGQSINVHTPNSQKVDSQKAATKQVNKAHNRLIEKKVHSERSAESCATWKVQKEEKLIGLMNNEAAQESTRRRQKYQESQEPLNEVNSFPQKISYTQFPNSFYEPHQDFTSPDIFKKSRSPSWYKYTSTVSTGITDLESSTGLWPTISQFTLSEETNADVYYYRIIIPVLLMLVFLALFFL
In assay [4] the target is Fibroblast growth factor receptor 3 (Homo sapiens, UniProt P22607). Nature of the assay: Selectivity interaction (Kinase panel (DSF assay)) EUB0001558a FGFR3. Background: DSF heats the sample and reads unfolding from a dye or from intrinsic fluorescence.
Sequence of Fibroblast growth factor receptor 3 (P22607 23-806 limits assumed): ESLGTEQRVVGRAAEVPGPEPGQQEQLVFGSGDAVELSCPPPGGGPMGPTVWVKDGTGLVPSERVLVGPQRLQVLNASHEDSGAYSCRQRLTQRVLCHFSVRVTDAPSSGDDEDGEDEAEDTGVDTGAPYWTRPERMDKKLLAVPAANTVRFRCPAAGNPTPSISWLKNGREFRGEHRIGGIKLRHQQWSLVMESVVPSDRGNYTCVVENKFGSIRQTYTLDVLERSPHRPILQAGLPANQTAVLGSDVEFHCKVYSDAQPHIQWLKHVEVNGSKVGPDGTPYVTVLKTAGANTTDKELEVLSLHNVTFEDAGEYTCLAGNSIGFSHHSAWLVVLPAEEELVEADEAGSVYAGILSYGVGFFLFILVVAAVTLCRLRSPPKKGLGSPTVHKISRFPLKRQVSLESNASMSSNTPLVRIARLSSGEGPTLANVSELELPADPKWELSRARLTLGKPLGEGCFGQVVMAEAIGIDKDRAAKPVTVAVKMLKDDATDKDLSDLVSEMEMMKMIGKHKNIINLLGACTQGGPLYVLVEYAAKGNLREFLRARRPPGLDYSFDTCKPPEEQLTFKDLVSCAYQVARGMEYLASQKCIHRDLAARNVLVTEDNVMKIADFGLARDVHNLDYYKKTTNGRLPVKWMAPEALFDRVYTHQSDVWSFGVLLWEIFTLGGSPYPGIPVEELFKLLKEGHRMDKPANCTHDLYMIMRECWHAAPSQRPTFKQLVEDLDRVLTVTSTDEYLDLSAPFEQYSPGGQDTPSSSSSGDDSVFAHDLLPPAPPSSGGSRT
Assay [5] addresses T2, G protein-coupled receptor kinase 3 (Homo sapiens) (UniProt P35626).
T2 sequence (whole entry): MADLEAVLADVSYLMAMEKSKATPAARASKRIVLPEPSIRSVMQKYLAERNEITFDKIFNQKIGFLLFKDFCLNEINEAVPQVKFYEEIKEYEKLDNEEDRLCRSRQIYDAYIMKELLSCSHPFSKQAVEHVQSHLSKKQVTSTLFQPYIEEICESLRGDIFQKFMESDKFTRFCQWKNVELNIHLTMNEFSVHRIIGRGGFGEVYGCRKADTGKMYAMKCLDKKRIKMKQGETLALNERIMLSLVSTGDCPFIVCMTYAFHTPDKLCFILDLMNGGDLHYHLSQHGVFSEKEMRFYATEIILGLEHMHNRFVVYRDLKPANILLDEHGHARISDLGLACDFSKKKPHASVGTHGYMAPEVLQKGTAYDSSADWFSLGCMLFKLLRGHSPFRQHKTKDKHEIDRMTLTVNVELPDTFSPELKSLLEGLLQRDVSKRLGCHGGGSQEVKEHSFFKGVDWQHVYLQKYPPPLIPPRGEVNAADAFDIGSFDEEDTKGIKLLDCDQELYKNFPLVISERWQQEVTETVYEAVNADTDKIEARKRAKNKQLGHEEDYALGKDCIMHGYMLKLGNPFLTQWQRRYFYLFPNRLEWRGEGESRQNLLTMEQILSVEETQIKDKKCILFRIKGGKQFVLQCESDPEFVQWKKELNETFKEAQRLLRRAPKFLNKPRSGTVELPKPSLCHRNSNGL
As to the kind of experiment: Selectivity interaction (KinomeScan (DiscoverX)) EUB0000229b ADRBK2. The conditions noted are these: at 10 µM.

Assay [6] has as its target Phosphatidylinositol 4,5-bisphosphate 3-kinase catalytic subunit gamma isoform (Homo sapiens) (UniProt P48736). Nature of the assay: Selectivity interaction (Panel of kinases, GPCRs, ion channels and transporters (enzymatic assay)) EUB0000266bCl PIK3CG.
Assay [7] deals with T3, Calcium/calmodulin-dependent protein kinase type IV (Homo sapiens) (UniProt Q16566).
T3 sequence (whole entry): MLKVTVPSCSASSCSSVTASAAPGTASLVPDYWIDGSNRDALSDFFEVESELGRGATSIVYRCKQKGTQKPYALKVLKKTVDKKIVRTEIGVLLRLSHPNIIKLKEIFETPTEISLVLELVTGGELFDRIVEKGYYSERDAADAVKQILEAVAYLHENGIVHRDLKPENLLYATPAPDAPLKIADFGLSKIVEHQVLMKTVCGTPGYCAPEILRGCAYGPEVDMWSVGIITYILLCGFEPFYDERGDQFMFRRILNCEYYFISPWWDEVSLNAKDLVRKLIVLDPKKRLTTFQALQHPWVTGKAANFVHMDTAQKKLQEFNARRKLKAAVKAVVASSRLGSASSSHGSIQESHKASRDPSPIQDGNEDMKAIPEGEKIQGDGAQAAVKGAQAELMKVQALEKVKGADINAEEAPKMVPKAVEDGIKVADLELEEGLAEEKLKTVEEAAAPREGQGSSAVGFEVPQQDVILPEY
Nature of the assay: Selectivity interaction (KinomeScan (DiscoverX)) EUB0001619a CAMK4. The conditions noted are these: at 1 µM.

Assay [8] has as its target T4, Dual specificity mitogen-activated protein kinase kinase 4 (Homo sapiens) (UniProt P45985).
T4 sequence (whole entry): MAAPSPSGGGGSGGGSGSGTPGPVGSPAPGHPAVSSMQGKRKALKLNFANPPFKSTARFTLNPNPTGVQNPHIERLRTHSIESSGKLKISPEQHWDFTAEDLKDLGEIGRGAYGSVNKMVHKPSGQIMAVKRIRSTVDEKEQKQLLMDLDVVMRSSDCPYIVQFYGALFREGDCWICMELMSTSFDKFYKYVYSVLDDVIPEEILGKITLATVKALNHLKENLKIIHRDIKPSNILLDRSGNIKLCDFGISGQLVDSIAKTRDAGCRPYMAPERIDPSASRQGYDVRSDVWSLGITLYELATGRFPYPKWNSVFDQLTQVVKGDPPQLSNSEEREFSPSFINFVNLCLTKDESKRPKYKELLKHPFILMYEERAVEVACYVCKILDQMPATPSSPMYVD
Nature of the assay: Selectivity interaction (ActivX KiNativ screen (kinase selectivity in THP-1 cell lysates)) EUB0000639a MAP2K4. In kind it is subcellular. Conditions: lysate, at 0.04 µM.

Assay [9] concerns the target Dual specificity testis-specific protein kinase 1 (Homo sapiens) (UniProt Q15569). Nature of the assay: Selectivity interaction (KinomeScan (DiscoverX)) EUB0000618a TESK1. Conditions: at 10 µM.

Sequence of Proto-oncogene tyrosine-protein kinase Src (P12931 2-536 limits assumed): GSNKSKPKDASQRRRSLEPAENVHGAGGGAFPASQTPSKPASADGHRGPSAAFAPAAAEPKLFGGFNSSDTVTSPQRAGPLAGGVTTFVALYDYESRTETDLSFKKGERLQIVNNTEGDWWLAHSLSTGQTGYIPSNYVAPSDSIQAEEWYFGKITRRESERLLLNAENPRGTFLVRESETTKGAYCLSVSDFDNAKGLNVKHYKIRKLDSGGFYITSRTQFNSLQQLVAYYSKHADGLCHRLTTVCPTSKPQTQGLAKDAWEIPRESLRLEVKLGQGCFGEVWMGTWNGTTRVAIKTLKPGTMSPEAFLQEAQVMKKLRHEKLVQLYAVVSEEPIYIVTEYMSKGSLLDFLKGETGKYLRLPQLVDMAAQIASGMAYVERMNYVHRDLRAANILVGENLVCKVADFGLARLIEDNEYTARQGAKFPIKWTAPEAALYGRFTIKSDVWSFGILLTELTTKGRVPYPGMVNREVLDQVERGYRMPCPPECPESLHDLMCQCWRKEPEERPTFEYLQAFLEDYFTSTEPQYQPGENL
Sequence of Phosphatidylinositol 4,5-bisphosphate 3-kinase catalytic subunit gamma isoform (Homo sapiens) (P48736 whole entry, looked up, canonical isoform): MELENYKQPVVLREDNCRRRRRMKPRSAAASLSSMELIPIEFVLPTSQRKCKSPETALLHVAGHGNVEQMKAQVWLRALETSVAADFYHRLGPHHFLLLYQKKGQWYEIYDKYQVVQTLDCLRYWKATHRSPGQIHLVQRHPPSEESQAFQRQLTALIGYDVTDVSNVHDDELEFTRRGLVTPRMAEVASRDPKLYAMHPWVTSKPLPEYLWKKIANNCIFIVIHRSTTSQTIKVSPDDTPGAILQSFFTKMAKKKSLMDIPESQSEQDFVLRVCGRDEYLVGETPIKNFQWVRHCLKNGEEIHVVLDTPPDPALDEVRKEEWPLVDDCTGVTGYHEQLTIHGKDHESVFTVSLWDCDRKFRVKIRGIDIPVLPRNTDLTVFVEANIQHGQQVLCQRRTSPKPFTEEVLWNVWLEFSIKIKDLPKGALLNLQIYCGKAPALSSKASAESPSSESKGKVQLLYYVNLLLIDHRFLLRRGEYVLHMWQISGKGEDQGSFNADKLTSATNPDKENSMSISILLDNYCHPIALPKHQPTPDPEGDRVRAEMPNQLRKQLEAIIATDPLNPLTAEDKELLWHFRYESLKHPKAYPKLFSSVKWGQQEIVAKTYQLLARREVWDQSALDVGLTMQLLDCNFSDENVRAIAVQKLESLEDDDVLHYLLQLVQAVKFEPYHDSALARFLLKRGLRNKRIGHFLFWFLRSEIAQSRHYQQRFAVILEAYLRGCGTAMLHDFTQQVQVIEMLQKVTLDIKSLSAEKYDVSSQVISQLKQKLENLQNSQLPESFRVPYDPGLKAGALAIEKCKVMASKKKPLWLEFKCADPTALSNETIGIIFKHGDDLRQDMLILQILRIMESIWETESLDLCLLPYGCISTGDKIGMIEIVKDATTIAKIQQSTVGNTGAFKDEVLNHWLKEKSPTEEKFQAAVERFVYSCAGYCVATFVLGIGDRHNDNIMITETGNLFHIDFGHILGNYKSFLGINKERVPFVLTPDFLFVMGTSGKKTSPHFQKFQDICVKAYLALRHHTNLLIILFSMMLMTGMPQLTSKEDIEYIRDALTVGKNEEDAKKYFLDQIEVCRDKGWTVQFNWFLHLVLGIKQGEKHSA
Sequence of Dual specificity testis-specific protein kinase 1 (Homo sapiens) (Q15569 whole entry, looked up): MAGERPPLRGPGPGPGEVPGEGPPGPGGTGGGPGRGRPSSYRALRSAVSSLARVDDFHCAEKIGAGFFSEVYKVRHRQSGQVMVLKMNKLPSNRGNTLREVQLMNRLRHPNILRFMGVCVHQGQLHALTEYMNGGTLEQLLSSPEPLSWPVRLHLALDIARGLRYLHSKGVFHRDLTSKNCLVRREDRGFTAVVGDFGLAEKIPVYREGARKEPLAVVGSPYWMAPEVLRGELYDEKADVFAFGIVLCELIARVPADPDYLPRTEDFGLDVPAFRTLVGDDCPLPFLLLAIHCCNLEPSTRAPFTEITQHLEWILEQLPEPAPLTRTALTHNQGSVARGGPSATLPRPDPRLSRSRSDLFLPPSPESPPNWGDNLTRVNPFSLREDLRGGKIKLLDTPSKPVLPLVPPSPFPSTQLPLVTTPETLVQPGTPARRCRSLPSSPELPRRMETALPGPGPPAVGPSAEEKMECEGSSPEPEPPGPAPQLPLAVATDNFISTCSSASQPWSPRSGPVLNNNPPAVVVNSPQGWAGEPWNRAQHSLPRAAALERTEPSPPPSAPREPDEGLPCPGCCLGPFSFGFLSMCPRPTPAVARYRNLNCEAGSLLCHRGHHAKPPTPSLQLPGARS

In assay [1], `CN(C)C/C=C/C(=O)Nc1ccc(C(=O)N2CCCC(Nc3ncc(Cl)c(-c4c[nH]c5ccccc45)n3)C2)cc1` (centres undefined) showed a % of control of 96%.

In assay [2], `CNC(=O)Nc1ccc(-c2nc(N3CC4CCC(C3)O4)c3cnn(C4CCC5(CC4)OCCO5)c3n2)cc1` registered a % of inhibition of 3%.

`Cc1cc([C@@H](C)Nc2ccccc2C(=O)O)c2nc(N3CCOCC3)cc(=O)n2c1` [AZD-6482]: the % of control in assay [3] is 100%.

Compound `CC(C)(O)[C@H](F)CN1Cc2cc(NC(=O)c3cnn4cccnc34)c(N3CCOCC3)cc2C1=O` showed a dTM in [4] of 2.5 K.

For `COc1cc(N(C)c2ccnc3ccc(C(F)(F)F)cc23)cc(OC)c1OC`, in assay [5], the % binding came out at 43%.

`CCn1c(-c2nc3cc(C(=O)N4CCCC(N)C4)ccc3n2C)cc2ccccc21` (centres undefined): in assay [6], the pXC50 was under 4.5 M.

Regarding `N#Cc1cccc(-c2c[nH]c3ncnc(N4CCOCC4)c23)c1`, the % of control in assay [7] amounted to 100%.

`CC[C@@H]1[C@H](F)C(=O)N[C@@H]1COc1nccc2cc(C(N)=O)c(OC)cc12` [ZIMLOVISERTIB] registered a % of inhibition in [8] of 8%.

`O[C@H]1CC[C@H](Nc2ncc3nc(Nc4c(F)cc(F)cc4F)n([C@H]4CCOC4)c3n2)CC1`: the % of control in [9] amounted to 78%.
